Results published in ChEMBL document CHEMBL3585245, “Synthesis and antiproliferative evaluation of 9-methoxy-6-(piperazin-1-yl)-11H-indeno[1,2-c]quinoline-11-one derivatives. Part 4” (Medchemcomm, 2014).

Test system: not listed separately
Test: Antiproliferative activity against human SKHep cells incubated for 72 hrs by MTT assay
Format: functional, cell-based
Conditions: not given

SMILES | IC50 [nM]
CC[C@@]1(O)C(=O)OCc2c1cc1n(c2=O)Cc2cc3ccccc3nc2-1 [CAMPTOTHECIN] | 220
COc1ccc2c(c1)C(=O)c1c-2c(N2CCN(C(=O)CNCCO)CC2)nc2ccccc12 | 6640
COc1ccc2c(c1)C(=O)c1c-2c(N2CCN(C(=O)CN3CCNCC3)CC2)nc2ccccc12 | 2220

Test system: NCI-H1299
Test: Antiproliferative activity against human H1299 cells incubated for 72 hrs by MTT assay
Format: functional, cell-based
Conditions: NCI-H1299, 72 h

IC50 [µM] | SMILES
5.41 | COc1ccc2c(c1)C(=O)c1c-2c(N2CCN(C(=O)CNCCO)CC2)nc2ccccc12
5.32 | COc1ccc2c(c1)C(=O)c1c-2c(N2CCN(C(=O)CN3CCNCC3)CC2)nc2ccccc12

SMILES | IC50 [µM]
CC[C@@]1(O)C(=O)OCc2c1cc1n(c2=O)Cc2cc3ccccc3nc2-1 [CAMPTOTHECIN] | 3.14

Test system: Detroit 551
Test: Antiproliferative activity against human Detroit 551 cells incubated for 72 hrs by MTT assay
Format: functional, cell-based
Conditions: Detroit 551, 72 h

SMILES | IC50 [nM]
CC[C@@]1(O)C(=O)OCc2c1cc1n(c2=O)Cc2cc3ccccc3nc2-1 [CAMPTOTHECIN] | 990
COc1ccc2c(c1)C(=O)c1c-2c(N2CCN(C(=O)CNCCO)CC2)nc2ccccc12 | 8780
COc1ccc2c(c1)C(=O)c1c-2c(N2CCN(C(=O)CN3CCNCC3)CC2)nc2ccccc12 | 2550

Test system: MDA-MB-231
Test: Antiproliferative activity against human MDA-MB-231 cells incubated for 72 hrs by MTT assay
Format: functional, cell-based
Conditions: MDA-MB-231, 72 h

IC50 [µM] | SMILES
5.9 | COc1ccc2c(c1)C(=O)c1c-2c(N2CCN(C(=O)CNCCO)CC2)nc2ccccc12
5.45 | COc1ccc2c(c1)C(=O)c1c-2c(N2CCN(C(=O)CN3CCNCC3)CC2)nc2ccccc12

SMILES | IC50 [µM]
CC[C@@]1(O)C(=O)OCc2c1cc1n(c2=O)Cc2cc3ccccc3nc2-1 [CAMPTOTHECIN] | 2.11

Test system: not listed separately
Test: Antiproliferative activity against human 786-O cells incubated for 72 hrs by MTT assay
Format: functional, cell-based
Conditions: 786-0, 72 h

SMILES | IC50 [µM]
CC[C@@]1(O)C(=O)OCc2c1cc1n(c2=O)Cc2cc3ccccc3nc2-1 [CAMPTOTHECIN] | 0.015
COc1ccc2c(c1)C(=O)c1c-2c(N2CCN(C(=O)CNCCO)CC2)nc2ccccc12 | 6.7
COc1ccc2c(c1)C(=O)c1c-2c(N2CCN(C(=O)CN3CCNCC3)CC2)nc2ccccc12 | 4

Test system: AGS
Test: Antiproliferative activity against human AGS cells incubated for 72 hrs by MTT assay
Format: functional, cell-based
Conditions: not given

IC50 [µM] | SMILES
6.55 | COc1ccc2c(c1)C(=O)c1c-2c(N2CCN(C(=O)CNCCO)CC2)nc2ccccc12
3.37 | COc1ccc2c(c1)C(=O)c1c-2c(N2CCN(C(=O)CN3CCNCC3)CC2)nc2ccccc12

SMILES | IC50 [µM]
CC[C@@]1(O)C(=O)OCc2c1cc1n(c2=O)Cc2cc3ccccc3nc2-1 [CAMPTOTHECIN] | 23.8

Test system: HeLa
Test: Antiproliferative activity against human HeLa cells incubated for 72 hrs by MTT assay
Format: functional, cell-based
Conditions: not given

IC50 [µM] | SMILES
4.74 | COc1ccc2c(c1)C(=O)c1c-2c(N2CCN(C(=O)CNCCO)CC2)nc2ccccc12
> 30 | COc1ccc2c(c1)C(=O)c1c-2c(N2CCN(C(=O)CN3CCNCC3)CC2)nc2ccccc12

SMILES | IC50 [µM]
CC[C@@]1(O)C(=O)OCc2c1cc1n(c2=O)Cc2cc3ccccc3nc2-1 [CAMPTOTHECIN] | 0.18

Test system: SAS
Test: Antiproliferative activity against human SAS cells incubated for 72 hrs by MTT assay
Format: functional, cell-based
Conditions: not given

SMILES | IC50 [µM]
CC[C@@]1(O)C(=O)OCc2c1cc1n(c2=O)Cc2cc3ccccc3nc2-1 [CAMPTOTHECIN] | 6
COc1ccc2c(c1)C(=O)c1c-2c(N2CCN(C(=O)CNCCO)CC2)nc2ccccc12 | 11.3
COc1ccc2c(c1)C(=O)c1c-2c(N2CCN(C(=O)CN3CCNCC3)CC2)nc2ccccc12 | 7.4
